These results are taken from paper PMC8333062, “Chemical tools for epichaperome-mediated interactome dysfunctions of the central nervous system” (Nature Communications, 2021).

Values joined by “and” are separate entries in the source; they are usually repeats but may differ in a detail not shown here. Equal values may be shown once.

Data set [1] in a line: LC/MS-MS tissue concentration 48 h after 75 mg kg-1 ip. As to conditions: mouse, MDA-MB-468 tumor, intraperitoneal, 75 mg kg^−1, 48 h post 75mg/kg ip, mouse 1-4; read-out: [PU-HZ151] MDA-MB-468 TUMOR. It counts as in vivo.
Data set [2] relates to MDA-MB-468 tumor and organs. Described as above. It counts as in vivo. Conditions: 48 h post 75mg/kg ip, mouse 1-4; listed as PU-HZ151.
Data set [3] can be described thus: Metabolic stability in liver microsomes. Type of data set: in vitro ADME, human. Conditions: No inhibitor. How it is done:
All samples were assayed in duplicate.
To identify cytochrome P450 enzymes responsible for PU-HZ151’s metabolism in human liver microsomes the following procedure was followed. Phosphate buffer (100 mM, pH 7.4) was prepared monthly and stored at 4 °C. Frozen stock solutions of human liver microsomes (Life Technologies; Cat# HMMCPL) were used once after thawing and were not refrozen. NADPH stock solution (50 mM) in distilled water was prepared fresh daily. Stock solutions of PU-HZ151 (1 mM in DMSO) and CYP inhibitors, furafylline (10 mM) for CYP1A2, tranylcypromine (2 mM) for CYP2A6, ketoconazole (1 mM) for CYP3A, troleandomycin (20 mM) for CYP3A4, orphenadrine (50 mM) for CYP2B6, montelukast (3 mM) for CYP2C8, sulfaphenazole (10 mM) for CYP2C9, benzylnirvanol (1 mM) for CYP2C19, quinidine (1 mM) for CYP2D6, and 1-aminobenzotriazole (1 mM) for all the P450 enzymes were stored at −20 °C. The stock solutions of these P450 inhibitors were prepared in DMSO. General procedure: PU-HZ151 (1 µM) was incubated with human liver microsomes (0.5 mg protein mL^−1), 2.5 mM NADPH, 3.3 mM magnesium chloride, and chemical inhibitors (various concentrations) in phosphate buffer (100 mM, pH 7.4) at 37 °C for up to 60 min. […] The concentration of the chemical inhibitors used in the assay were furafylline (10 μM), tranylcypromine (2 μM), ketoconazole (1 μM), troleandomycin (20 μM), orphenadrine (50 μM), montelukast (3 μM), sulfaphenazole (10 μM), benzylnirvanol (1 μM), quinidine (1 μM), and 1-aminobenzotriazole (1 mM) for all the P450 enzymes. Timing of the reactions was started following the addition of NADPH/magnesium chloride mix and PU-HZ151. Time-dependent chemical inhibitors (furafylline, troleandomycin, orphenadrine, and 1-aminobenzotriazole) were preincubated with human microsomes in the presence of NADPH and magnesium chloride for 15 min before the addition of PU-HZ151 and timing of reactions was started after addition of PU-HZ151. […]
(Liver microsomes are vesicles of endoplasmic reticulum, rich in cytochrome P450 enzymes.)

In another data set the test system is all the P450 enzymes. As to the kind of experiment: Cytochrome P450 profiling, 1-aminobenzotriazole. Type of data set: in vitro ADME, human. Conditions: for % PU-HZ151 remaining: ABT. How it is done: (§1) To identify cytochrome P450 enzymes responsible for PU-HZ151’s metabolism in human liver microsomes the following procedure was followed. Phosphate buffer (100 mM, pH 7.4) was prepared monthly and stored at 4 °C. Frozen stock solutions of human liver microsomes (Life Technologies; Cat# HMMCPL) were used once after thawing and were not refrozen. NADPH stock solution (50 mM) in distilled water was prepared fresh daily. […] The stock solutions of these P450 inhibitors were prepared in DMSO. […] The concentration of the chemical inhibitors used in the assay were furafylline (10 μM), tranylcypromine (2 μM), ketoconazole (1 μM), troleandomycin (20 μM), orphenadrine (50 μM), montelukast (3 μM), sulfaphenazole (10 μM), benzylnirvanol (1 μM), quinidine (1 μM), and 1-aminobenzotriazole (1 mM) for all the P450 enzymes. Timing of the reactions was started following the addition of NADPH/magnesium chloride mix and PU-HZ151. Time-dependent chemical inhibitors (furafylline, troleandomycin, orphenadrine, and 1-aminobenzotriazole) were preincubated with human microsomes in the presence of NADPH and magnesium chloride for 15 min before the addition of PU-HZ151 and timing of reactions was started after addition of PU-HZ151. […] Following brief vortexing and centrifugation, a 200 µL aliquot of the supernatant was transferred to a tube, and 10 µL of haloperidol (1 µg mL^−1) as internal standard was added. Following brief vortexing and centrifugation, 50 µL of supernatant was added to a 96-well plate for subsequent LC-MS/MS analysis. PU-HZ151 was similarly tested as above in the absence of CYP inhibitors for comparative purposes. All samples were assayed in duplicate. […] This was similarly performed for incubations of PU-HZ151 performed in the absence of CYP inhibitor.

The next data set deals with CYP3A. Briefly: Cytochrome P450 profiling, ketoconazole. Type of data set: in vitro ADME, human. As to conditions: for % PU-HZ151 remaining: Ketoconazole. As for the experimental part:
as §1

The target of the next data set is T1, CYP3A4 (Homo sapiens, UniProt P08684).
T1 construct: tissue Life Technologies HMMCPL; host or cells: human liver microsomes
Briefly: Cytochrome P450 profiling, troleandomycin. Conditions: for % PU-HZ151 remaining: Troleandomycin. It counts as in vitro ADME. How it is done: as §1

The next data set has as its target T2, CYP2C9 (Homo sapiens, UniProt P11712).
T2 construct: PU-HZ151 (1 µM) was incubated with human liver microsomes (0.5 mg protein mL^−1); tissue Life Technologies HMMCPL; host or cells: human liver microsomes
Briefly: Cytochrome P450 profiling, sulfaphenazole. Type of data set: in vitro ADME. Conditions: for % PU-HZ151 remaining: Sulfaphenazole. How it is done: as §1

T2 sequence (P11712 whole entry): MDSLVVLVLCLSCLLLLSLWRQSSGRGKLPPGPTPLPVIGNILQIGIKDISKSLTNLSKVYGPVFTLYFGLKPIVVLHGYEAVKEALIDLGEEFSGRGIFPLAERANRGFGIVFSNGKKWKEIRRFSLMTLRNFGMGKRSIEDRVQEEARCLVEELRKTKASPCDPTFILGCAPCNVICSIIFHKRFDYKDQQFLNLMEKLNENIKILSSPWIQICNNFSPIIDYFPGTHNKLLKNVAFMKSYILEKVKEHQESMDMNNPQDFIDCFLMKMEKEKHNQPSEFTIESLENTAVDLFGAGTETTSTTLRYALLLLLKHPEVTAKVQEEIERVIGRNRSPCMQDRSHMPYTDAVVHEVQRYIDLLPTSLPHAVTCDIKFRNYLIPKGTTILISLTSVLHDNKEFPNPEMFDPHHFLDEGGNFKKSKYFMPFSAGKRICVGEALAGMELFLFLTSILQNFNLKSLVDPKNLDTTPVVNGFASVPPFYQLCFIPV
T1 sequence (P08684 whole entry): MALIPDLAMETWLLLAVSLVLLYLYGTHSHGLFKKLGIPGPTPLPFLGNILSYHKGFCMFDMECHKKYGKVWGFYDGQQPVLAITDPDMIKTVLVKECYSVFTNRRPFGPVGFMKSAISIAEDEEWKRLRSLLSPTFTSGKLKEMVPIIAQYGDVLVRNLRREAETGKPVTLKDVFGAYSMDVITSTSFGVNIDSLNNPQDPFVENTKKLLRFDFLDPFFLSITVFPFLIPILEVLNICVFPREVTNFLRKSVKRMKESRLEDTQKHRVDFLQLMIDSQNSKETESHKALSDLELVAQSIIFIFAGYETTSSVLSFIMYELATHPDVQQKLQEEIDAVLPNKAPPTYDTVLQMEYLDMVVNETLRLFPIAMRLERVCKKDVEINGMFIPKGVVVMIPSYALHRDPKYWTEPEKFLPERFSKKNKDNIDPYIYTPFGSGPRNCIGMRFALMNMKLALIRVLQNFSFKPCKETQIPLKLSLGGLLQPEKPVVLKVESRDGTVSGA

The Papp is a coefficient for how fast a substance crosses the barrier. The low end stands for slow passage, the high end for fast passage. On to `CC(C)(C)CNCCn1c(Sc2cc3c(cc2I)OCO3)nc2c(N)ncnc21` [Compound 85], for which the concentration at 48 h in data set [1] is 1.67 µM. The “[PU-HZ151] Liver” value in data set [2] is 0.002 µM. In addition, in data set [2], the “[PU-HZ151] MDA-MB-468 TUMOR” value was 1.786 µM and 1.509 µM and 1.067 µM. Besides, the “% PU-HZ151 remaining” value in data set [3] (15 min) was found to be 52.7%; in data set [3] (30 min) it was 34.7%; in data set [3] (60 min) it was 17.2%; with all the P450 enzymes (15 min) it was 90.5%; with all the P450 enzymes (30 min), 83.9%; in the data set with all the P450 enzymes (60 min) it was 79.6%. The “% PU-HZ151 remaining” value in the data set on CYP3A (15 min) is on record as 76.5%; in the data set on CYP3A (30 min), 63.5%; with CYP3A (60 min) it was 50.6%; on CYP3A4 (15 min), 79.8%; at CYP3A4 (30 min), 66.9%; on CYP3A4 (60 min), 50.9%. Moreover, the “% PU-HZ151 remaining” value at CYP2C9 (15 min) is 70.5%; at CYP2C9 (30 min) it was 54.1%; on CYP2C9 (60 min), 36.5%. In addition, the “inhibition of PU-HZ151 metabolism” value with all the P450 enzymes (1-aminobenzotriazole) is on record as 75%; in the data set on CYP3A (ketoconazole), 40%; on CYP3A4 (troleandomycin) it was 40%; on CYP2C9 (sulfaphenazole) it was 23%. The compound further had a PAMPA_BBB in “PAMPA-BBB permeability” (Supplementary Table 6) of 15.4±2.6. In the data set “PAMPA-BBB permeability” (pig, PAMPA, pH 7.4), this compound gave a Papp at 16 h, 50 μM of 154 ± 13 nm/s.
